Among the test systems are A498; UO-31; HT-29; SF-539; OVCAR-8; UACC-62; K562; SK-MEL-5; MDA-N; Hs-578T; MDA-MB-231; RXF 393; COLO 205; OVCAR-5; KM12; NCI/ADR-RES; NCI-H23; SK-MEL-28; SW-620; NCI-H460.
Holding throughout (experiment): growth of human tumour cells (NCI), 48 h

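Method: 48-hour compound exposure of cells in 96-well plates, five concentrations, linear interpolation of endpoints. At the GI50, growth is halved.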 Calls of active or inactive are those of the source. Rule as the data show it: active = GI50 up to about 1.1 µM and inactive = higher. A value given as a limit tells only on which side of the number the result lay.

`O=C(O)CCCc1ccc2c(c1)CC1(C2)Cc2cc3c(cc2C1)CCCC3`: the GI50 with A498 is 17.1 µM (inactive); in the assay with UO-31, 19.4 µM (inactive); with HT-29, 16.3 µM (inactive); in the assay with SF-539 it was 2.06 µM (inactive); with OVCAR-8 it was 16.5 µM (inactive); with UACC-62 it was > 100 µM (inactive). In addition, the GI50 in the assay with K562 was 11.2 µM (inactive); with SK-MEL-5, 13.8 µM (inactive); with MDA-N, 19.1 µM (inactive); with Hs-578T, > 100 µM (inactive); with MDA-MB-231, 3.24 µM (inactive); in the assay on RXF 393 it was 13.2 µM (inactive). In addition, the GI50 in the assay on COLO 205 is 19.9 µM (inactive); in the assay with OVCAR-5, 19.9 µM (inactive); in the assay on KM12, 19 µM (inactive); with NCI/ADR-RES, 31.8 µM (inactive); with NCI-H23, 23.6 µM (inactive).
For `COc1ccc(CN(Cc2ccc(OC)cc2)C(=O)CC2(O)C=CCC2)cc1` (stereo not given), the GI50 with A498 is > 100 µM (inactive); with UO-31 it was 44.9 µM (inactive); with HT-29, 66.7 µM (inactive); in the assay on SF-539, > 100 µM (inactive); with OVCAR-8, 37.5 µM (inactive); in the assay on UACC-62, 57.7 µM (inactive). The GI50 in the assay with K562 was 34 µM (inactive); with SK-MEL-5, 32.9 µM (inactive); in the assay on MDA-N, 72.9 µM (inactive); in the assay on Hs-578T it was 48.4 µM (inactive); in the assay on SK-MEL-28, > 100 µM (inactive); in the assay with SW-620 it was > 100 µM (inactive). Besides, the GI50 in the assay with MDA-MB-231 is > 100 µM (inactive); with NCI-H460, 67.5 µM (inactive); in the assay with COLO 205, 40 µM (inactive); with OVCAR-5 it was > 100 µM (inactive); in the assay on KM12 it was 45.9 µM (inactive); in the assay with NCI/ADR-RES, 43.1 µM (inactive). Further, the GI50 in the assay with NCI-H23 was > 100 µM (inactive).
Turning to `C=CC(C)(C)n1cc(C2=C3OC(=O)C(c4cn(C(C)(C)C=C)c5ccccc45)=C3OC2=O)c2ccccc21`, the GI50 in the assay on A498, in the assay on UO-31, in the assay on HT-29, in the assay on SF-539, in the assay on OVCAR-8 and in the assay with K562 was > 100 µM (inactive) in each case. Besides, the GI50 in the assay with SK-MEL-5 is > 100 µM (inactive); with MDA-N, > 100 µM (inactive); in the assay on Hs-578T, > 10 µM (inactive); in the assay on SK-MEL-28, > 100 µM (inactive); in the assay with SW-620 it was > 100 µM (inactive); in the assay with MDA-MB-231 it was > 100 µM (inactive). Further, the GI50 in the assay with RXF 393, with NCI-H460, in the assay on COLO 205, in the assay with OVCAR-5, with KM12 and with NCI/ADR-RES was > 100 µM (inactive) in each case. Besides, the GI50 in the assay with NCI-H23 was > 100 µM (inactive).
For the molecule `CC1=C(CO)C(=O)O[C@@H]([C@@H](CO)[C@H]2CCC3C4C[C@@H](O)[C@@]5(O)CC=CC(=O)[C@]5(C)C4CC[C@@]32C)C1` (stereo not given in full), the GI50 in the assay on A498 is 63.4 µM (inactive); with UO-31, 24.4 µM (inactive); in the assay with HT-29, 44.2 µM (inactive); with SF-539, 53.8 µM (inactive); in the assay on OVCAR-8, 73.1 µM (inactive); in the assay with UACC-62, 47 µM (inactive). The GI50 in the assay on K562 was 31.8 µM (inactive); in the assay with SK-MEL-5, 51.4 µM (inactive); in the assay on MDA-N it was 71.9 µM (inactive); in the assay with Hs-578T, 59.2 µM (inactive); with SW-620, 29 µM (inactive); with MDA-MB-231, 59.2 µM (inactive). For the same molecule, the GI50 in the assay with RXF 393 is 15.2 µM (inactive); with COLO 205 it was 30 µM (inactive); in the assay on OVCAR-5, 83.9 µM (inactive); in the assay on KM12 it was 43.3 µM (inactive); in the assay with NCI/ADR-RES, > 100 µM (inactive); with NCI-H23 it was 67.9 µM (inactive).
Consider `CC[C@H](C)c1occ2c(O)c(C(=O)O)c(=O)cc-2c1C`, for which the GI50 is 29 µM (inactive) in the assay on A498; 25.7 µM (inactive) in the assay on HT-29; 20.7 µM (inactive) in the assay with SF-539; 19.2 µM (inactive) in the assay on OVCAR-8; 17.3 µM (inactive) with UACC-62; 29.1 µM (inactive) with K562. Besides, the GI50 with SK-MEL-5 is 18.3 µM (inactive); with MDA-N, 24 µM (inactive); in the assay with Hs-578T it was 48.5 µM (inactive); in the assay with SW-620, 20.4 µM (inactive); in the assay with MDA-MB-231 it was 23 µM (inactive); in the assay with RXF 393, 15.5 µM (inactive). Besides, the GI50 in the assay with NCI-H460 is 24.3 µM (inactive); in the assay with COLO 205, 19.3 µM (inactive); in the assay on OVCAR-5, 19.5 µM (inactive); in the assay on KM12, 18.5 µM (inactive); with NCI/ADR-RES, 20.3 µM (inactive); with NCI-H23, 21.4 µM (inactive).
`Cc1cccc(-n2c(C)nc3ccc(NC(=S)Nc4ccccc4)cc3c2=O)c1`: the GI50 in the assay on A498 is > 100 µM (inactive); with UO-31, 47.4 µM (inactive); in the assay on HT-29, 51.9 µM (inactive); in the assay on OVCAR-8 it was 74.3 µM (inactive); with UACC-62, 50.1 µM (inactive); in the assay on K562, 50.1 µM (inactive). Further, the GI50 in the assay on SK-MEL-5 was 18.2 µM (inactive); with MDA-N, 55.6 µM (inactive); in the assay with Hs-578T, > 100 µM (inactive); with SK-MEL-28, > 100 µM (inactive); in the assay with SW-620 it was > 100 µM (inactive); in the assay with MDA-MB-231 it was 70.1 µM (inactive). For the same molecule, the GI50 with RXF 393 is 62.4 µM (inactive); in the assay with NCI-H460 it was 11 µM (inactive); with COLO 205, 30.6 µM (inactive); with OVCAR-5, > 100 µM (inactive); with KM12, 57.3 µM (inactive); in the assay on NCI/ADR-RES it was 84.1 µM (inactive). Also, in the assay with NCI-H23, the GI50 was 64.9 µM (inactive).
Regarding `O=[N+]([O-])c1cccc(/N=N/c2c(O)ccc3ccccc23)c1`, the GI50 in the assay on A498 is > 100 µM (inactive); with UO-31, > 100 µM (inactive); in the assay with HT-29 it was > 100 µM (inactive); in the assay on OVCAR-8, > 100 µM (inactive); with UACC-62, 41.4 µM (inactive); with K562, 69 µM (inactive). The GI50 in the assay with SK-MEL-5 is 75.7 µM (inactive); with MDA-N it was 87.3 µM (inactive); in the assay on Hs-578T, 49.5 µM (inactive); in the assay on SK-MEL-28, 90.4 µM (inactive); with SW-620, 57 µM (inactive); with MDA-MB-231 it was 56.4 µM (inactive). The GI50 with RXF 393 was 91.2 µM (inactive); in the assay on COLO 205, > 100 µM (inactive); in the assay with OVCAR-5, > 100 µM (inactive); in the assay on KM12, 42.4 µM (inactive); with NCI/ADR-RES, 70 µM (inactive); in the assay on NCI-H23 it was 70.8 µM (inactive).
`CO[C@@H]1C[C@H]2[C@@H]3CC[C@H]([C@@H](C)CO)[C@@]3(C)CC[C@@H]2[C@@]2(C)CC[C@H]3C[C@]312`: the GI50 in the assay on A498 is > 100 µM (inactive); in the assay on UO-31 it was 39.8 µM (inactive); in the assay on HT-29 it was 18.5 µM (inactive); in the assay with SF-539, 43.1 µM (inactive); in the assay on OVCAR-8, 31 µM (inactive); in the assay with K562 it was 22.8 µM (inactive). Besides, the GI50 with SK-MEL-5 is 16.7 µM (inactive); in the assay with MDA-N, 34.7 µM (inactive); in the assay on Hs-578T, 27.2 µM (inactive); with SK-MEL-28, 27.6 µM (inactive); with SW-620, 31.9 µM (inactive); in the assay on MDA-MB-231, 28.3 µM (inactive). For the same molecule, the GI50 in the assay with RXF 393 is 19.2 µM (inactive); in the assay with NCI-H460 it was 20.9 µM (inactive); in the assay on COLO 205 it was 17.6 µM (inactive); in the assay with OVCAR-5 it was > 100 µM (inactive); in the assay with KM12 it was 19 µM (inactive); with NCI/ADR-RES, 24.9 µM (inactive). Besides, the GI50 in the assay with NCI-H23 was 40.7 µM (inactive).
With `CS(=O)(=O)c1nc(-c2cc3c(c(S(C)(=O)=O)n2)CCCC3)cc2c1CCCC2`, the GI50 in the assay with A498 was > 100 µM (inactive); in the assay on UO-31, 0.048 µM (active); in the assay on HT-29, > 100 µM (inactive); in the assay on SF-539, > 65.2 µM (inactive); with OVCAR-8 it was > 35.4 µM (inactive); with UACC-62, > 38.4 µM (inactive). Also, the GI50 in the assay with K562 is > 100 µM (inactive); in the assay with SK-MEL-5 it was > 100 µM (inactive); with MDA-N it was > 100 µM (inactive); in the assay with Hs-578T, 12.4 µM (inactive); in the assay with SK-MEL-28, > 100 µM (inactive); in the assay on SW-620 it was > 100 µM (inactive). Besides, the GI50 is 56.5 µM (inactive) in the assay with MDA-MB-231; 26.1 µM (inactive) in the assay with RXF 393; > 100 µM (inactive) in the assay with COLO 205; > 100 µM (inactive) in the assay with OVCAR-5; > 100 µM (inactive) with KM12; > 64.3 µM (inactive) in the assay on NCI/ADR-RES. In addition, in the assay on NCI-H23, the GI50 is > 63 µM (inactive).
As to `C/C(=N\O)c1ccc(OCc2cc(C(F)(F)F)cc(C(F)(F)F)c2)cc1`, the GI50 was > 100 µM (inactive) in the assay on A498; > 100 µM (inactive) with UO-31; 20.1 µM (inactive) in the assay with HT-29; 60.5 µM (inactive) in the assay with SF-539; 41.9 µM (inactive) with OVCAR-8; 33 µM (inactive) in the assay on K562. The GI50 with SK-MEL-5 was 50.9 µM (inactive); in the assay with MDA-N, 37.2 µM (inactive); in the assay on Hs-578T, 37.8 µM (inactive); in the assay on SK-MEL-28, 61.9 µM (inactive); with SW-620, 32 µM (inactive); in the assay with MDA-MB-231 it was > 100 µM (inactive). In addition, the GI50 is 21.8 µM (inactive) in the assay on RXF 393; 23.4 µM (inactive) with NCI-H460; 29.9 µM (inactive) in the assay with COLO 205; > 100 µM (inactive) with OVCAR-5; 19.3 µM (inactive) with KM12; 61.2 µM (inactive) in the assay with NCI/ADR-RES. Moreover, in the assay with NCI-H23, the GI50 was 95.3 µM (inactive).

Source of the values: ChEMBL document CHEMBL1201862, “PubChem BioAssay data set” (2004).
